Test results as given in ChEMBL document CHEMBL1201862, “PubChem BioAssay data set” (2004).
Counter-ions that a name gives are not always drawn. Active and inactive are the calls of the source.

Experiments:
[1] = target: Ubiquitin carboxyl-terminal hydrolase BAP1 (Homo sapiens, UniProt Q92560); test: BAP1 deubiquitinase inhibitors, dose response, biochemical (AID 714); type: functional
[2] = target: 14-3-3 protein gamma (Homo sapiens, UniProt P61981); test: modulators of 14-3-3 gamma client binding – dose response (AID 711); type: functional
[3] = target: T1, Voltage-gated N-type calcium channel alpha-1B subunit/Amyloid beta A4 precursor protein-binding family A member 1 (Homo sapiens, UniProt Q00975+Q02410); type: protein assay
[4] = target: T1, Voltage-gated N-type calcium channel alpha-1B subunit/Amyloid beta A4 precursor protein-binding family A member 1; type: protein assay; remark: listed apart in the source
[5] = target: Bifunctional protein GlmU (Mycobacterium tuberculosis, UniProt P9WMN3); test: Inhibitors of Mycobacterial Glucosamine-1-phosphate acetyl transferase (GlmU). Secondary screen.; parameters: species or system Mycobacterium tuberculosis H37Rv
[6] = target: Glucose-6-phosphate 1-dehydrogenase (Homo sapiens, UniProt P11413); test: human G6PD enzyme inhibitors, dose response, selectivity assay for P. falciparum G6PD inhibitor project, biochemical, fluorescence (AID 504792); type: functional
[7] = target: Eukaryotic translation initiation factor 4E (Mus musculus, UniProt P63073); test: eIF4E–eIF4G protein interaction inhibitors, dose response, biochemical, TR-FRET (AID 855); type: functional;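 further: potency for disrupting eIF4E binding to eIF4GI seen as loss of FRET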
[8] = tested on: H9c2; test: cells; type: functional, cell-based; settings: Rattus norvegicus, H9c2, Myocardium;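 further: confirmatory concentration-response retest of ultra-high-throughput screening hits for modulation of myocardial damage; cell death induced by hydrogen peroxide oxidative stress; compound pretreatment for 60 min then peroxide exposure for 2 h; potency is for protecting the cells against peroxide damage rather than for killing them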
[9] = target: T2, Insulin-degrading enzyme (Homo sapiens, UniProt P14735); test: Dose Response: Fluorescence polarization-based cell-based high throughput dose response assay for inhibitors of insulin-degrading enzyme (IDE). [Related pubchem assays: 434962 (Primary screen (IDE inhibitors in singlicate)), 449730 (Counterscreen (Cytotoxicity in triplicate)), 435028 (Confirmation (IDE inhibitors in triplicate)), 434984 (Summary …; type: functional
T2 sequence (P14735 whole entry): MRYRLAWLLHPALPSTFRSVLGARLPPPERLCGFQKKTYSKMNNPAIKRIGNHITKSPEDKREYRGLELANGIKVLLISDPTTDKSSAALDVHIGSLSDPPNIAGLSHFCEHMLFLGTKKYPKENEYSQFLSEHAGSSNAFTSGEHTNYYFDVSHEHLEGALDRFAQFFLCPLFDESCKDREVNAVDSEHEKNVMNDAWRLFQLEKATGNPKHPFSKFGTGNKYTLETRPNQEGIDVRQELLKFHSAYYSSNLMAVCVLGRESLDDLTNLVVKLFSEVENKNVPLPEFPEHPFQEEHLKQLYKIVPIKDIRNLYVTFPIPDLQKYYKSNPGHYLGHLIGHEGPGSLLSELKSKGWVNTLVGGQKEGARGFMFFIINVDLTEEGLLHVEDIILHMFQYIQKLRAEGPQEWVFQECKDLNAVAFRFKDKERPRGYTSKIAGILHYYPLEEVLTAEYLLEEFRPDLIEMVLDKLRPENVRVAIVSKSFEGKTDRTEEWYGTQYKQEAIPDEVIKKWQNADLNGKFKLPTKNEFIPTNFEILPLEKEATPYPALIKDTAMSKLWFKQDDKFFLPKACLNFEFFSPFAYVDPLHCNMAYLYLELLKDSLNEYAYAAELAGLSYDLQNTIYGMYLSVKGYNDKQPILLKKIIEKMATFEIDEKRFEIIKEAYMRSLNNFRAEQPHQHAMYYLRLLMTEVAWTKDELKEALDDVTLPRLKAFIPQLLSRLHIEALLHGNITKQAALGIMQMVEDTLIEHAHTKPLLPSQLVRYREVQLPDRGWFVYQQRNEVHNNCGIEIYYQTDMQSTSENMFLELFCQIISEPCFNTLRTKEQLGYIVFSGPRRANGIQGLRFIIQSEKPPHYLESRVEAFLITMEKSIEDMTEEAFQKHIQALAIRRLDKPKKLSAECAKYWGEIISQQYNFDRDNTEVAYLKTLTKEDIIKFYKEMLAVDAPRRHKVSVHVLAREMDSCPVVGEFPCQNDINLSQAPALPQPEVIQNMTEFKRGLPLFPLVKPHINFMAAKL

[10] = target: T3, Mannose-6-phosphate isomerase (Homo sapiens, UniProt P34949); test: human PMI inhibitors, high substrate, primary screen, biochemical, fluorescence intensity, high mannose 6-phosphate (AID 1220)
T3 sequence (P34949 whole entry): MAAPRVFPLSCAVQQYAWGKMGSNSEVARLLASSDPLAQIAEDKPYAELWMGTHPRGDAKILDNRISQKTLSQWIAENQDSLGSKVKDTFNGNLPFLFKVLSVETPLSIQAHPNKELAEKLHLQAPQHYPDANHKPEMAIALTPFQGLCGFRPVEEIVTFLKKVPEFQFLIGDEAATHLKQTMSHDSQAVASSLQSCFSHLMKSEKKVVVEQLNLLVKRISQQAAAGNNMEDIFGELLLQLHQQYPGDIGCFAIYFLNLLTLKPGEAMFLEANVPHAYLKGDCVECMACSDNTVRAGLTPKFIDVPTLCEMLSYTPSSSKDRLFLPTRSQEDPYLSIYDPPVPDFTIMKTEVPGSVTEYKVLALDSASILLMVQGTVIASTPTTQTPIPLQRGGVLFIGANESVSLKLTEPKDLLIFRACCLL

[11] = target: Ras and Rab interactor 1/Tyrosine-protein kinase ABL1 (Homo sapiens, UniProt P00519+Q13671); type: functional;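 further: biochemical TR-FRET dose-response test measuring inhibition of binding between Rin1 and Abl proteins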
[12] = A549 cell cytotoxicity, dose response, CellTiter-Glo luminescence, dry powder, set 17 (AID 1117284); type: functional, cell-based
[13] = inhibitors of intracellular T. cruzi replication, confirmation, NIH3T3 host cells, beta-gal luminescence (AID 2044); type: functional, cell-based;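 further: intracellular parasites grown in NIH/3T3 mouse fibroblasts as host cells; luminescent beta-galactosidase reporter signal from transgenic T. cruzi replicating inside host cells; inhibitors lower the luminescence signal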
[14] = target: Aryl hydrocarbon receptor (Homo sapiens, UniProt P35869); test: Luminescence-based cell-based high throughput dose response assay for activators of the Aryl Hydrocarbon Receptor (AHR). [Related pubchem assays: 2796 (Primary screen (AHR activators in singlicate)), 2845 (Confirmation screen (AHR activators in triplicate)), 434939 (Counterscreen (PXR activators in triplicate)), 2804 (Summary (AHR activators))]; type: ADME
[15] = cytotoxicity toward NIH3T3 fibroblasts, dose response, counter-screen, cell-based, ATP luminescence, mouse fibroblasts (AID 2010); type: functional;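 further: cells exposed to compound for about 90 hours before reading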
[16] = tested on: INS1; test: beta cell apoptosis inhibitors, cytokine rescue, dose response, luminescence, retest (AID 449756); type: functional, cell-based; settings: Rattus norvegicus;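 further: cell death triggered by IL-1 beta plus TNF-alpha plus IFN-gamma mixture; protective hits raise ATP signal compared with cytokine alone wells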
[17] = target: Paired box protein Pax-8 (Homo sapiens, UniProt Q06710); test: inhibitors of PAX8-driven TPO luciferase reporter, dose response, RMG-I cells, cherry-pick (AID 687027); type: functional, cell-based;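 further: luciferase reporter driven by Pax8 target thyroperoxidase promoter measured by SteadyGlo luminescence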
[18] = Dose-response inhibition of insulin secretion in a rat insulinoma line at 5 mM glucose (AID 1117331); type: functional, cell-based; settings: INS-1E
[19] = cells; type: functional, cell-based; settings: INS-1E

T1 sequence (Q00975 whole entry): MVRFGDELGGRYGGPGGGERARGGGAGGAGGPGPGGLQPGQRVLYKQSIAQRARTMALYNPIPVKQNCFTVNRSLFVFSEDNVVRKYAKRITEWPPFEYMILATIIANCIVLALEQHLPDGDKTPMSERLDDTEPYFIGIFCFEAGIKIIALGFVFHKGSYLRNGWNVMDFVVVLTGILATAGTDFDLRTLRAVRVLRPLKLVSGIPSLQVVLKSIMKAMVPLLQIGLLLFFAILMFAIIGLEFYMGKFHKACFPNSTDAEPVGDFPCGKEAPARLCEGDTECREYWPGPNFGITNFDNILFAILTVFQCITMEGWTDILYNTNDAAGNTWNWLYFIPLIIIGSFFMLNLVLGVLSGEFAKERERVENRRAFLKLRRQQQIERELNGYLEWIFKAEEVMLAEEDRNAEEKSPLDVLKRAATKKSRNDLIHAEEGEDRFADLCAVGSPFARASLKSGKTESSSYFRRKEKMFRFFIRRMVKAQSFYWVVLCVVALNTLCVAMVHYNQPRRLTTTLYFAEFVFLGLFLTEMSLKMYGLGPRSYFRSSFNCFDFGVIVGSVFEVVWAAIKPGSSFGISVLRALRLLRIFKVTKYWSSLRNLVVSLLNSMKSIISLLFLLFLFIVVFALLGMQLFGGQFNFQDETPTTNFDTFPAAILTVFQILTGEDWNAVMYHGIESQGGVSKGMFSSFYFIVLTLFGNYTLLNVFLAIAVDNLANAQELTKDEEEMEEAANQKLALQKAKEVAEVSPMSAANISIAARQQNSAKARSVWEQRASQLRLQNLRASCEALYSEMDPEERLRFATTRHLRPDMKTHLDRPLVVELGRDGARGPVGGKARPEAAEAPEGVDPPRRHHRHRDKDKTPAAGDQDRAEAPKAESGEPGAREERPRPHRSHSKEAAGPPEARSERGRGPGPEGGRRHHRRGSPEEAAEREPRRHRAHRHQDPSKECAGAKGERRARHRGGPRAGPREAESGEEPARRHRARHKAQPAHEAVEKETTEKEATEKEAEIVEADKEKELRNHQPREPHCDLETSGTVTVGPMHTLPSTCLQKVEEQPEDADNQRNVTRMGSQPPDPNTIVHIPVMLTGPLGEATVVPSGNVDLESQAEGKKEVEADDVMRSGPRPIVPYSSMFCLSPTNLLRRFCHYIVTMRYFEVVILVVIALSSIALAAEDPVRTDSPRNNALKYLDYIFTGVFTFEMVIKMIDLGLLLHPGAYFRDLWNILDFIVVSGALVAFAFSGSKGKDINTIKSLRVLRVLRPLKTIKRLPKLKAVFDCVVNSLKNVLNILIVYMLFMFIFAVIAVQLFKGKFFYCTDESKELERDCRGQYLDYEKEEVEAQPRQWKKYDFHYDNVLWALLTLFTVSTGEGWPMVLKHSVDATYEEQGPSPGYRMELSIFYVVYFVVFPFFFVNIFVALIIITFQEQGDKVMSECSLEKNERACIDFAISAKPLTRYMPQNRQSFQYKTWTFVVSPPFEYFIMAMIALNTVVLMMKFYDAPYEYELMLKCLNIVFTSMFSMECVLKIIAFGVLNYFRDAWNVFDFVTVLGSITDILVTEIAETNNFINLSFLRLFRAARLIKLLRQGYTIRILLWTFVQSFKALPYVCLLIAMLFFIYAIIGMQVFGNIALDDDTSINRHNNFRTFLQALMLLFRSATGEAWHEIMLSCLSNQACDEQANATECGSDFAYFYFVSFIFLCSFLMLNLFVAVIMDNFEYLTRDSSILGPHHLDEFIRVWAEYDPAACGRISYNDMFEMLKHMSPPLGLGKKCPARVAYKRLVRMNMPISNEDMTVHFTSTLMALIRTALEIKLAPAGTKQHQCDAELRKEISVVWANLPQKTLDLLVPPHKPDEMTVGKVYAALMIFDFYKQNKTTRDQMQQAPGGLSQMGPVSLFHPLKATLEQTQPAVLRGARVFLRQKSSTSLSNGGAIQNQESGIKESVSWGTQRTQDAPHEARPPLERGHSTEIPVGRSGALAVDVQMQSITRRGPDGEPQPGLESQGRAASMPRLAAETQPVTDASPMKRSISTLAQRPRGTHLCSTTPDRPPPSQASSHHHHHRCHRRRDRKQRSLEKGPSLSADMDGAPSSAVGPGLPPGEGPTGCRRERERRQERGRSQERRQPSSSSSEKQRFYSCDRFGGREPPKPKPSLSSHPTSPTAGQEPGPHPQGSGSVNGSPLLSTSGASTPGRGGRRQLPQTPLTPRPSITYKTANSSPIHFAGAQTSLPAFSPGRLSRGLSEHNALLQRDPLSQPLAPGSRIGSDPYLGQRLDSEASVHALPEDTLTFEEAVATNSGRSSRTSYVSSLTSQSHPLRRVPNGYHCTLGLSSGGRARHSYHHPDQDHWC
T1 sequence (Q02410 whole entry): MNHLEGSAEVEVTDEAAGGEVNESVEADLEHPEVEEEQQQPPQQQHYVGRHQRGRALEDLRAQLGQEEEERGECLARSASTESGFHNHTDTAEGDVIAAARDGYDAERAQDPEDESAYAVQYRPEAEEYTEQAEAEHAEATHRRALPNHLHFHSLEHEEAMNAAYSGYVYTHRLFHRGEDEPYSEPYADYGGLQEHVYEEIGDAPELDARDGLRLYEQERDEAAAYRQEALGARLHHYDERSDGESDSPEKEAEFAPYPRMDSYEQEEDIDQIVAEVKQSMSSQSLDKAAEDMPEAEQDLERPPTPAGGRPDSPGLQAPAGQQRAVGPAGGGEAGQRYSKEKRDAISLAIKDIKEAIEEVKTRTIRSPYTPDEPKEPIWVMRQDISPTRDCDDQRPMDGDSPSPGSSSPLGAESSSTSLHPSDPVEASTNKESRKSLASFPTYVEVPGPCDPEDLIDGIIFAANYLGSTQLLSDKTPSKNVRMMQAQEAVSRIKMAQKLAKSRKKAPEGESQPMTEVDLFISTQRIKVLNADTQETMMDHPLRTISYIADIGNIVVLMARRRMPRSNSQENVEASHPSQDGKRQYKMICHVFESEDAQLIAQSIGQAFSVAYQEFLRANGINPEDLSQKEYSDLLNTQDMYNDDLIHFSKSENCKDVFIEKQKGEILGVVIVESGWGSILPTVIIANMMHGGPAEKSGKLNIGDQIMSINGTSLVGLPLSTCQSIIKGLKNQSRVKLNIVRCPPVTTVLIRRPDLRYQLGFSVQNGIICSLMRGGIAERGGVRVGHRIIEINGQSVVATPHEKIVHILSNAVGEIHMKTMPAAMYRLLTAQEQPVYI
Paired box protein Pax-8, sequence (Q06710 whole entry): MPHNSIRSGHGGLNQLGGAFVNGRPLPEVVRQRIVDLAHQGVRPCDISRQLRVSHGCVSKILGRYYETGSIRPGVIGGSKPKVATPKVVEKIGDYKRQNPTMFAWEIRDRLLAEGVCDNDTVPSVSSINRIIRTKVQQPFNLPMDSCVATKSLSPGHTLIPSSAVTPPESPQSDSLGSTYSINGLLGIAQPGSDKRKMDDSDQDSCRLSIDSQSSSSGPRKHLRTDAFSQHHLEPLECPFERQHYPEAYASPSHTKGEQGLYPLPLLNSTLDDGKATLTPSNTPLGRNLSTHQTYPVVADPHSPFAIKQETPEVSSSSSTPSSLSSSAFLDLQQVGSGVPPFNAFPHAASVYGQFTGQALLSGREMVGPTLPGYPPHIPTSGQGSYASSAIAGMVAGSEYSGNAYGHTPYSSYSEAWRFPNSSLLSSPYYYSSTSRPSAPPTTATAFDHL
Glucose-6-phosphate 1-dehydrogenase, sequence (P11413 whole entry): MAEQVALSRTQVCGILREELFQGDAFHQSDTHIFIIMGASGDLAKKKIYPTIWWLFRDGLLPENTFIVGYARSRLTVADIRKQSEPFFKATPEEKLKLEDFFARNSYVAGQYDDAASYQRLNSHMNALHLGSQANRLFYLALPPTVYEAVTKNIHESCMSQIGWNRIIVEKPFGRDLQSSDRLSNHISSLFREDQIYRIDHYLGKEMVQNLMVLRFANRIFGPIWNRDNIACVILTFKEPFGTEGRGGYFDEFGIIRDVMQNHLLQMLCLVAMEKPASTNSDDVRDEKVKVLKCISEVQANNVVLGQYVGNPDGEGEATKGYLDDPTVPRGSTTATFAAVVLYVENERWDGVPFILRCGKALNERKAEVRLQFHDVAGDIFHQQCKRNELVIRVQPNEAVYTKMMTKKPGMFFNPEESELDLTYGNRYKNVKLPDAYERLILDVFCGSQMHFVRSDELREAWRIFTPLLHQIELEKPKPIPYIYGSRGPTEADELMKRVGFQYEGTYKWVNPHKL
Aryl hydrocarbon receptor, sequence (P35869 whole entry): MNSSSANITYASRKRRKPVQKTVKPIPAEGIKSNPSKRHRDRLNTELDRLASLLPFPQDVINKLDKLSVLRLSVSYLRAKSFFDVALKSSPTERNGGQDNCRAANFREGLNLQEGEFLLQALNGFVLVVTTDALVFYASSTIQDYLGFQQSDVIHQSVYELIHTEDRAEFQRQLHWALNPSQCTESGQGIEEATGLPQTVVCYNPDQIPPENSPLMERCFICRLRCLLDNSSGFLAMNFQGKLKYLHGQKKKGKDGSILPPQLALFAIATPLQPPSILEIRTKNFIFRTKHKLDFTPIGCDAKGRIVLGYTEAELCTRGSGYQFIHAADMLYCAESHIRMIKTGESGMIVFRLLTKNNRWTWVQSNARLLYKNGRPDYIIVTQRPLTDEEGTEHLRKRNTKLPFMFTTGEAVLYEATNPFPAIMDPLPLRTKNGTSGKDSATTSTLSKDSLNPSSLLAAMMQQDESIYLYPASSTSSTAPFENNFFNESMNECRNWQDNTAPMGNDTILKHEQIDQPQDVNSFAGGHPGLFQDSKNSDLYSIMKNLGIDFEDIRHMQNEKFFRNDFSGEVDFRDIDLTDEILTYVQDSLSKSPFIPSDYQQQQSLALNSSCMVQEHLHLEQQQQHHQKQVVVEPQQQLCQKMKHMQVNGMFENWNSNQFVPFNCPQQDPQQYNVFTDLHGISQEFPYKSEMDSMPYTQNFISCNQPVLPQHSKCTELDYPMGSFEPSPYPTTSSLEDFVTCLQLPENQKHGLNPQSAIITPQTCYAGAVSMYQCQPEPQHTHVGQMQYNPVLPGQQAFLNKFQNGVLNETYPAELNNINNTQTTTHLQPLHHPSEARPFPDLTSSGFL

N#Cc1c(NC(=O)CSc2ncnc3c2cnn3-c2ccccc2Cl)sc2c1CCCC2
IC50 [1]: > 50 µM (not active)

OC(CN1CCOCC1)CN(c1ccccc1)c1ccccc1 (stereo unspecified)
IC50 [2]: > 50 µM (not active)

O=C1Nc2ccccc2C(=O)C1(Cl)Cc1ccccc1 (stereo unspecified)
IC50 [3]: 23.3 µM (active)
IC50 [4]: > 50 µM (inactive)
IC50 [5]: 62.9 µM (active)
IC50 [6]: > 80 µM (inactive)
IC50 [7]: > 64 µM (inactive)
IC50 [8]: 17.2 µM (active)

O=c1[nH]c2ccccc2c(O)c1O
IC50 [3]: 28.5 µM (active)
IC50 [4]: 2.71 µM (active)
IC50 [9]: 3.28 µM (active)
IC50 [10]: 9.69 µM (active)

C[C@@H]1CN([C@H](C)CO)S(=O)(=O)c2ccc(C#C[C@@H](C)O)cc2O[C@@H]1CN(C)Cc1ccc(-c2ccccc2)cc1
IC50 [11]: 9.68 µM (active)
AC50 [12]: 36.1 µM (active)

CCc1ccc2[nH]c3nc(N/N=C/c4ccc(O)cc4O)nnc3c2c1
EC50 [13]: 2.44 µM (active)
EC50 [14]: > 91.7 µM (not active)
EC50 [15]: 17.7 µM (active)
AC50 [16]: 1.58 µM (active)
AC50 [17]: 2.7 µM (active)

NCc1ccc(S(N)(=O)=O)cc1 [MAFENIDE HYDROCHLORIDE]
IC50 [18]: > 33.3 µM (inactive)
IC50 [19]: > 33.3 µM (inactive)
